{
  "source": "patent US20060198900A1",
  "about": "“Bioactive Agent Compositions for Repair of Cell Injuries” (Nutritional Bioscience Limited, priority 2004, published 2006)",
  "key": {"Caco2-BBe cells": {"test_system": "Caco2-BBe cells", "details": "relatively small amount, 1 mg protein/ml; cited from earlier work"}, "[1]": {"test_system": "recurrent herpes simplex infection (cold sores)", "details": "oral 600-1000 mg per day in two doses; increasing from 46 days; cited from earlier work"}, "[2]": {"test_system": "human colonic cancer cell line HT-29", "experiment": "Cell restitution (migration) assay in wounded HT-29 monolayers", "format": "cell-based", "details": "10 ug/ml, 8 hours after wounding", "experimental": "Accordingly, the human colonic cancer cell line HT-29 was grown to confluence in six well plates in a solution of DMEM-containing glutamine and 10% fetal calf serum. The monolayers of the cells were then wounded by scraping a disposable pipette tip across the dishes, washed with fresh serum-free medium, and then cultured in a serum-free medium in the presence of 1 mg/ml, 2 mg/ml, and 5 mg/ml colostrum solutions. The rate of movement of the anterior edges of the wounded monolayer cells was then determined by taking serial photomicrographs at various times after wounding (i.e., 0, 4, 8, 12, and 24) hours, using an inverted Nikon TS100 microscope and a Nikon Coolpix 800 digital camera with 100-fold magnification. Identical regions were examined at each time point by premarking the base of the plates to facilitate alignment. […] Each wound was examined in at least three different regions, and expressed as mean and SEM of three separate experiments.\nThe next study analyzed the potential added benefit of using colostrum rather than milk based product. […] The distance migrated by the leading edge of the cells 8 hours after wounding was then assessed. […]\nThe next study analysed the potential added benefit of using licorice as a stimulant of restitution. […] The distance migrated by the leading edge of the cells 8 hours after wounding was then assessed. […]"}, "[3]": {"test_system": "indomethacin-induced rat gastric damaging model", "experiment": "Indomethacin-induced rat gastric damaging model", "format": "in vivo", "details": "1% via gavage before indomethacin"}},
  "note": "“Also recorded” adds a separate entry of the source.",
  "data": [
    {"compound": "O=c1c(-c2ccc(O)cc2)coc2cc(O)cc(O)c12", "note": "[genistein]", "values": [
      {"measurement": "growth of Caco2-BBe cells", "setting": "Caco2-BBe cells", "result": "increase some parameters of growth"}
    ]},
    {"compound": "Nc1nc2c(ncn2COCCO)c(=O)[nH]1", "note": "[acyclovir]", "values": [
      {"measurement": "mean time to recurrence of cold sores", "setting": "[1]", "result": 118, "unit": "days"}
    ]},
    {"compound": "epidermal growth factor [EGF, peptide growth factor used as positive control]", "values": [
      {"measurement": "amount of migration of leading edge versus DMEM alone", "setting": "[2]", "result": "two-fold increase; also recorded: increased the amount of cell movement"}
    ]},
    {"compound": "O=C([O-])O.[Na+]", "note": "[sodium bicarbonate]", "values": [
      {"measurement": "reduction of degree of gastric injury compared to saline control", "setting": "[3]", "result": "about 75%"}
    ]}
  ]
}
